Where two headings read alike, the source gives them in different places.
Columns and labels:
ICR female mice = experiment: Blood glucose reducing activity through intraperitoneal glucose tolerance test (IPGTT); type: in vivo; settings: 10 nmol
Protocol: Long-acting of the blood glucose reducing effect was tested in this example to determine long-acting of the blood glucose reducing activity of Compound 35 of the present invention. As control samples for determining blood glucose reducing activity and long-acting of the activity, native Exendin-4 was used, and the activity of each peptide sample was measured by intraperitoneal glucose tolerance test (IPGTT).
ICR female mice (6 weeks old, DaehanBioLink, Korea) were employed as test animals, after being adapted in lab for 7 days. Before the test, 8 mice were picked out of each group and blood was collected from tail to measure the glucose concentration in blood using glucometer (Accucheck Sensor, Roche), and then, starved for 15 to 18 hours. […] At each determined time, blood was corrected from caudal vein and the level of glucose therein was measured with glucometer. The experiments for the determination of blood glucose reducing activity and the long-acting of the activity are summarized in Table 5.
The animal test results with respect to the long-acting of blood glucose reducing effect, when Compound 35 of the present invention, and […], were measured through IPGTT, and shown in FIGS. 1 and 2. […]

activated HSA = activated HSA (Homo sapiens, UniProt P02768)
Chain of activated HSA (P02768 25-609): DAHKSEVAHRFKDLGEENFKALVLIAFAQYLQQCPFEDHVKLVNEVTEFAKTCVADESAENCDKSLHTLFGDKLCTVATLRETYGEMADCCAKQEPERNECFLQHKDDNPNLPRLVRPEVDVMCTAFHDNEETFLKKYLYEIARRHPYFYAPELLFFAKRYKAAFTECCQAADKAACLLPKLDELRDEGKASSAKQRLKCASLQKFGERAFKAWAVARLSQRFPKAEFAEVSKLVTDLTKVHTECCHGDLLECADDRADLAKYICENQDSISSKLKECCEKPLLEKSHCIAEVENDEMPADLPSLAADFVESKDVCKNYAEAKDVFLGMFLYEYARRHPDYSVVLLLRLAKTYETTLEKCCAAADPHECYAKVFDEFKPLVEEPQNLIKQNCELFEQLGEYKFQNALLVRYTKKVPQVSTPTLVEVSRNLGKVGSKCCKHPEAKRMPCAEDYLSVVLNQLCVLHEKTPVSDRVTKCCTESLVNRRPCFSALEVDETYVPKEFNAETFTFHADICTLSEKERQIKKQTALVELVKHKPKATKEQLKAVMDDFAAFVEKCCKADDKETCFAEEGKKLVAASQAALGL
Protocol: Such binding degree to albumin can be simply qualitatively or quantitatively measured by an in vitro analysis using a simple HPLC.
Human serum albumin (HSA, 1 mM) solution was prepared by dissolving 66.5 mg of the activated HSA prepared in Example 3 in PBS buffer solution (pH 7.2, 1 ml). Stock solutions (1 mM) of bioactive substance Compound 15 (1.8 mg/ml) and Leuprolide (1.2 mg/ml) were respectively prepared by the same method.
The stock solutions prepared in the above method were diluted with PBS buffer so that they had the compositions shown in Table 2 below thereby to prepare sample solutions (100 μl) for determination. Then, each reaction mixture was mixed and slowly shaken in an incubator for 30 min while the temperature condition of 37° C. was kept. After incubation, methanol (150 μl) was added to each sample vial, which was then voltexed for 10 min, to precipitate HSA. The precipitated albumin was spun down by centrifugation (12,000 rpm, 10° C., 10 min.) and the supernatants (50 μl) were taken and analyzed using HPLC under the same conditions.
The degree of conjugation was examined with increasing the concentration of the bioactive substance compounds at the fixed concentration of albumin.

| Substance | blood glucose reducing curve in IPGTT versus saline control (ICR female mice; subcutaneous once 10 hours before intraperitoneal glucose (2 g/kg)) | blood glucose reducing curve in IPGTT versus saline control (ICR female mice; subcutaneous once 24 hours before intraperitoneal glucose (2 g/kg)) | PA 20.6 min (peak area) (activated HSA; Compound 15/albumin 5/50 (μl of 1 mM stocks), PBS, 37° C., 30 min, supernatant HPLC) | PA 20.6 min/4.4M (activated HSA; Compound 15/albumin 5/50, relative to Compound 15 only) | PA 20.6 min/4.4M (activated HSA; Compound 15/albumin 10/0, Compound 15 only) | PA 20.6 min (peak area) (activated HSA; Compound 15/albumin 10/0, Compound 15 only, M: million) | PA 20.6 min (peak area) (activated HSA; Compound 15/albumin 10/50 (μl of 1 mM stocks), PBS, 37° C., 30 min, supernatant HPLC) | PA 20.6 min/4.4M (activated HSA; Compound 15/albumin 10/50, relative to Compound 15 only) | PA 20.6 min (peak area) (activated HSA; Compound 15/albumin 20/50 (μl of 1 mM stocks), PBS, 37° C., 30 min, supernatant HPLC, M: million) | PA 20.6 min/4.4M (activated HSA; Compound 15/albumin 20/50, relative to Compound 15 only) | PA 20.6 min (peak area) (activated HSA; Compound 15/albumin 40/50 (μl of 1 mM stocks), PBS, 37° C., 30 min, supernatant HPLC, M: million) | PA 20.6 min/4.4M (activated HSA; Compound 15/albumin 40/50, relative to Compound 15 only) | PA 20.6 min (peak area) (activated HSA; Compound 15/albumin 50/40 (μl of 1 mM stocks), PBS, 37° C., 30 min, supernatant HPLC, M: million) | PA 20.6 min/4.4M (activated HSA; Compound 15/albumin 50/40, relative to Compound 15 only) | PA 20.6 min (peak area) (activated HSA; Compound 15/albumin 50/50 (μl of 1 mM stocks), PBS, 37° C., 30 min, supernatant HPLC, M: million) | PA 20.6 min/4.4M (activated HSA; Compound 15/albumin 50/50, relative to Compound 15 only) | binding of Compound 15 to albumin (activated HSA; binding test of albumin and Compound 15) |
| --- | --- | --- | --- | --- | --- | --- | --- | --- | --- | --- | --- | --- | --- | --- | --- | --- | --- |
| Exendin-4 | no significant difference | no significant difference |  |  |  |  |  |  |  |  |  |  |  |  |  |  |  |
| Leuprolide-GSG-Lys-[ε-AEEA-CO—(CH2)2—SH]—NH2.2TFA [Compound 15] |  |  | 0 | 0 | 1.0 | 4.4M | 0 | 0 | 1.3M | 0.3 | 9.8M | 2.2 | 17.9M | 4.0 | 14.7M | 3.3 | bound |
